Consider 69 compounds from PubChem BioAssay AID179 (DTP/NCI, 2004).

In this assay the test system is CEM cells HIV-1 protection, formazan growth assay. Kind of assay: NCI AIDS Antiviral Assay. Conditions: for IC50: measured here: growth of uninfected CEM cells. The method in brief:
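Steps: treat uninfected and HIV-1-infected human CEM cells at five drug levels; quantify growth by soluble formazan; retest any compound reaching 50% protection; classify actives from the retest.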

“And” between values parts separate entries of the source, which are not always exact repeats. Equal entries are not always repeated. The source made the active and inactive calls.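 The calls were made as follows: active = compounds giving half or more protection of infected cells from virus-caused growth loss, again on retest; inactive = the rest.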 Where only a bound is given, the exact number is not on record here.

As for `C=C1C(=O)OC2C3C(=C)[C@@H](OC(C)=O)CC3C(C)=CC(OC(=O)C(C)(O)C(C)OC(C)=O)[C@@H]12` (stereo partly drawn), the EC50 (in general, the concentration needed to bring the measured effect to its halfway point) was above 200 µM and the IC50 (in general, the concentration at which inhibition is half-maximal) was above 200 µM. Take `Cc1ccc2c(c1)CC1(C2=O)[C@H](c2ccccc2)C2C(=O)c3ccc(C)cc3C2[C@H]1c1ccccc1` (stereo partly drawn): the EC50 was above 200 µM. For the compound `Nc1cc(N2CCCC2)nc(=O)n1Cc1ccccc1`, the result was inactive. Turning to `N#CNC(=NCCO)NCCO`, the EC50 was above 525 µM and the IC50 is above 525 µM.

Take `CCOC(=O)C(=Cc1cccc(OC)c1)C(=O)OCC`: the EC50 was above 129 µM and the IC50 was found to be 14.8 µM.

As to `CC1NC(=O)c2cc(=O)[nH]c(O)c21` (stereo not drawn), the EC50 is above 513 µM and the IC50 stood at 398 µM.

Turning to `CC(NC(=O)C(Cc1ccc(OC(=O)c2ccccc2)cc1)NC(=O)OC(C)(C)C)C(=O)NCC(=O)NC(Cc1ccccc1)NC(=O)OCc1ccccc1` (stereo not drawn), the EC50 is above 200 µM and the IC50 stood at 110 µM. The corresponding values for `O=Cc1ccc(-c2cccc([N+](=O)[O-])c2)s1` are above 200 µM and 166 µM. As for `Cc1ccc2c(c1)[nH]c(=S)n2C=C1C(=O)NC(=O)NC1=O`, the EC50 is above 100 µM and the IC50 is above 100 µM. Turning to `COc1ccc(C2S/C(=C\c3cc(OC)c(OC)c(OC)c3)C(=O)N2NC(=O)Cc2ccccc2)cc1` (stereo not drawn), the EC50 is above 36.3 µM and the IC50 is above 36.3 µM. In the case of `O=S(=O)(O)c1cc(N=Nc2cc(S(=O)(=O)O)c3cccnc3c2O)ccc1C(O)C(O)c1ccc(N=Nc2cc(S(=O)(=O)O)c3cccnc3c2O)cc1S(=O)(=O)O` (stereo not drawn), the EC50 is 11.2 µM and the IC50 was above 200 µM. Take `C=C[C@H](C)[C@H](O[Si](C)(C)C(C)(C)C)c1c(O)c2c(c3c(CCC)cc(=O)oc13)OC(C)(C)C=C2`: the EC50 is above 200 µM and the IC50 turned out to be 39.8 µM. Consider `CC(C)(C)[Si](C)(C)OCC1OC(n2ccc(=O)[nH]c2=O)C(O[Si](C)(C)C(C)(C)C)C1C/C(N)=N/O` (stereo not drawn), for which the EC50 is above 200 µM; the IC50 was 6.61 µM and 30.9 µM.

As for `COc1cc2c3c(c1)nc(C)n3C(=O)CS2`, the EC50 is above 200 µM and the IC50 is above 200 µM. Regarding `O=S(=O)(c1ccc(N=C=S)cc1)N1CCCCC1`, the EC50 is above 200 µM and the 50% inhibitory concentration (IC50) was determined as 97.7 µM.

In the case of `Cc1cc2c(cc1O)CC[C@@H]1[C@@H]2CC[C@]2(C)[C@@H](O)CC[C@@H]12`, the EC50 was above 200 µM and the IC50 was found to be 4.07 µM.

In the case of `Nc1nc(Br)nc2ncn(C3CC(O)C(CO)O3)c12` (stereo not drawn), the EC50 was above 200 µM and the IC50 turned out to be 7.41 µM. As to `O=C1C2C3CC(C4C5C=CC(C5)C34)C2C2C3CC(C12)C1C2C=CC(C2)C31` (stereo not drawn), the EC50 is above 28.8 µM and the IC50 was above 28.8 µM. Take `O=C1C2(Cl)C3(Cl)C4(OCCO4)C4(Cl)C2(Cl)C2(Cl)C1(Cl)C3(Cl)C42Cl` (stereo not drawn): the EC50 is above 200 µM and the IC50 worked out at 28.8 µM. For `C[C@@H]1CC(=O)[C@@]2(C)[C@](O)(CCC3O[C@]32C)[C@@]12CC(c1ccoc1)OC2=O` (stereo partly drawn), in that order: above 200 µM and 30.9 µM. As to `C(=Nc1cnc2ccccc2c1)c1ccc2ccccc2n1`, the EC50 was above 35.5 µM and the IC50 is 19.1 µM. The corresponding values for `CNS(=O)(=O)NNS(=O)(=O)c1cccc([N+](=O)[O-])c1` are above 83.2 µM and above 83.2 µM. Regarding `COC1(O)C(=O)c2ccccc2OC1(OC)c1ccccc1` (stereo not drawn), the EC50 is above 200 µM and the IC50 came to 112 µM. For the compound `COc1ccc(C2CC(c3ccc4ccccc4c3O)=NN2C(C)=O)cc1OC` (stereo not drawn), the EC50 was above 50.1 µM and the IC50 was above 50.1 µM. Regarding `COC(=O)C1CCC(=O)N1C(c1cc(OC)c(OC)c(OC)c1)c1cc(OC)c(OC)c(OC)c1` (stereo not drawn), the EC50 was above 200 µM and the IC50 was 55 µM. Turning to `CCOC(=O)/C(F)=C/c1ccc([N+](=O)[O-])cc1`, the EC50 is above 41.7 µM and the IC50 was above 41.7 µM. For `CCC(C)(O)c1cn(-c2ccc(S(=O)(=O)O)cc2)nn1` (stereo not drawn), the EC50 is above 417 µM and the IC50 is above 417 µM. For the compound `Nn1c(-c2cccc(Cl)c2)nc2ccccc2c1=O`, the outcome was inactive.

With `Cc1noc(C)c1-c1onc2ccc(Cl)cc12`, the EC50 is above 28.8 µM and the IC50 is above 28.8 µM. With `CCOc1ccc(NC(=O)CCC(=O)NN)cc1`, the EC50 was above 724 µM and the IC50 is 603 µM.

Regarding `COc1ccc2cc1Oc1ccc(cc1)C[C@@H]1c3cc(c(OC)cc3CCN1C)Oc1c(OC)c(OC)cc3c1[C@H](C2)N(C)CC3`, the result was inactive. `C=CCN(N=O)C(=O)NCCCC(NC(C)=O)C(=O)NCc1ccccc1` (stereo not drawn): the EC50 was above 661 µM and the half-maximal inhibitory concentration (IC50) was above 661 µM. As to `CC1(C)OCC(C2OC(OC(=O)c3ccc(C(F)(F)F)cc3)C3OC(C)(C)OC23)O1` (stereo not drawn), the outcome was inactive. Turning to `CN(C)C=Nc1cccc2nsnc12`, the EC50 is above 200 µM and the IC50 is above 200 µM. Turning to `CC1=NC2(CCCCC2)N(Cl)C(=O)C1SC#N` (stereo not drawn), the EC50 is above 200 µM and the IC50 is 17.8 µM. As to `CC(=O)c1c(-c2cccc3ccccc23)c(C#N)c(=S)n(C2OC(CO)C(O)C(O)C2O)c1-c1ccccc1` (stereo not drawn), the EC50 is above 200 µM; the IC50 was 24 µM and > 200 µM. Turning to `c1ccc(-c2cc(=[N+]3CCOCC3)c3ccccc3o2)cc1`, the result was inactive. `CCOC(=O)NC(N(C)C(C(C)C)P(=O)(OCC)OCC)(C(F)(F)F)C(F)(F)F` (stereo not drawn): the EC50 is above 200 µM and the IC50 is above 200 µM. On to `CC(C)(c1cn(Cc2ccccc2)c2ccccc12)c1cn(Cc2ccccc2)c2ccccc12`, for which the outcome was inactive. As to `CCCCCC(Nc1nncs1)Nc1nncs1`, the EC50 was above 200 µM and the IC50 is above 200 µM.

In the case of `COc1cc(/C=N\NS(=O)(=O)c2ccc([N+](=O)[O-])cc2)c([N+](=O)[O-])cc1OC`, the EC50 was above 33.1 µM and the IC50 was above 33.1 µM. For the compound `C=CC(C)(C)n1cc(C2=C(O)C(=O)C(c3c(CC=C(C)C)[nH]c4ccccc34)=C(O)C2=O)c2ccccc21`, the EC50 was above 200 µM and the IC50 is 2.57 µM. `CN(C)Cc1cc(N=Nc2ccc(Cl)cc2)ccc1O`: the EC50 is above 20 µM and the half-inhibitory concentration (IC50) is 13.5 µM. Take `CC1=C(C(=O)O)CCC2(C)C3=C(CCC12)C(=O)C(C(C)C)=CC3=O` (stereo not drawn): the EC50 was above 200 µM and the IC50 is 12.3 µM. As to `Clc1ccc(Nc2nc(Cl)c3[nH]cnc3n2)cc1Cl`, the EC50 is above 200 µM and the IC50 worked out at 63.1 µM. For `Cc1cc(S(=O)(=O)NC2=NC(c3ccccc3)c3ccccc3N2)c(S)cc1Cl` (stereo not drawn), in that order: above 200 µM and above 200 µM. The corresponding values for `CCCCC(CC)CCC(CCC(CC)CCCC)S(=O)(=O)O` (stereo not drawn) are above 200 µM and above 200 µM. The corresponding values for `CON[C@@H]1C[C@H](n2cc(C)c(=O)[nH]c2=O)O[C@@H]1CO[Si](C)(C)C(C)(C)C` are above 200 µM and 107 µM. `O=c1c2cc([N+](=O)[O-])ccc2[nH]n1Cc1ccccn1`: the EC50 was above 200 µM and the IC50 was above 200 µM. Regarding `O=C(NCCCCCCNC(=O)NCc1ccco1)NCc1ccco1`, the EC50 is above 14.5 µM and the IC50 was above 14.5 µM. Consider `Cc1cc2nc3c4ccccc4scc-3c2cc1C`, for which the EC50 is above 200 µM and the IC50 turned out to be 0.324 µM. The corresponding values for `CC1C(c2ccccc2)=Nn2c(=O)n(-c3ccccc3)c(=O)n21` (stereo not drawn) are above 200 µM and above 200 µM.

Take `NCCN.NCCN.O=C[O-].O=C[O-].[Co+3].[O-][Cl+3]([O-])([O-])[O-]`: the result was inactive. Regarding `Cc1ccc(-n2c(O)c3c(N)n[nH]c3c(C#N)c2=O)cc1`, the EC50 was 155 µM and the IC50 was above 200 µM. For `CCOC(=O)c1c2cccccc-2nc1Nc1ccccc1N1C=CC(C)C(C(=O)OC)=C1C(=O)OC` (stereo not drawn), in that order: above 200 µM and 129 µM.

As for `COC(=O)C1C=CN(N(C)C)C2=C1C(=O)c1c(O)cccc1C2=O` (stereo not drawn), the EC50 is above 200 µM and the IC50 worked out at 1.74 µM.

`Cc1ccc(NC(=O)CC(=O)n2nc(-c3ccccc3)c(N=Nc3ccccc3[N+](=O)[O-])c2-c2ccccc2)cc1`: the EC50 was above 25.1 µM and the IC50 is above 25.1 µM.

For `CCCCN1C[C@H](OC(=O)CCC)[C@@H](OC(=O)CCC)[C@H](OC(=O)CCC)[C@H]1COC(=O)CCC`, the EC50 was above 200 µM and the IC50 was above 200 µM. `O=c1c(Nc2ccccc2)cn(CCOc2ccccc2)c(=O)n1CCOc1ccccc1`: the EC50 was above 200 µM and the IC50 was above 200 µM. On to `COc1cccc(C2c3cc4c(cc3OC(Nc3ccccc3)C2C)OCO4)c1OC` (stereo not drawn), for which the EC50 is above 200 µM and the IC50 was 2.95 µM. Take `Cc1cn(C2C=CC(=O)C(C)O2)c(=O)[nH]c1=O` (stereo not drawn): the EC50 is above 1050 µM and the concentration for half-maximal inhibition (IC50) was found to be 6.31 µM.

Regarding `N#CC1CCCCC1NC1(C#N)CCCCC1` (stereo not drawn), the EC50 is above 195 µM and the IC50 is above 195 µM. As for `Cc1cccc(Nc2cn(CCOc3ccccc3)c(=O)n(CCOc3ccccc3)c2=O)c1`, the EC50 was above 200 µM and the concentration for half-maximal inhibition (IC50) is above 200 µM.

Regarding `CC[n+]1c2ccc(C)cc2nc2c3ccccc3c(N)cc21`, the EC50 is above 200 µM and the IC50 is 1.02 µM. The corresponding values for `Cc1cc(NC(=S)NNC(=O)Cn2nnc(-c3cccc(Cl)c3Cl)n2)ccc1Br` are above 200 µM and 141 µM.

For the compound `O=S(=O)(N/N=C/c1c(Cl)cccc1Cl)c1ccccc1`, the outcome was inactive.

On to `O=C(NCCCl)c1ccc(Cl)c(Cl)c1`, for which the result was inactive. Consider `CC1OC(OC2C(O)COC(OC3C(C)OC(OC4C(OC(=O)[C@]56CCC(C)(C)C[C@@H]5C5=CCC7[C@@]8(C)C[C@H](O)[C@H](OC9OC(CO)C(O)C(O)C9O)[C@@](C)(CO)[C@@H]8CC[C@@]7(C)[C@]5(C)CC6)OCC(O)C4O)C(O)C3OC3OCC(O)(CO)C3O)C2O)C(O)C(O)C1O` (stereo partly drawn), for which the EC50 is above 30.2 µM and the IC50 amounted to 17.8 µM.

Take `COCN1C(=O)[C@@H]2C[C@@H](O)CN2C(=O)c2ccccc21`: the EC50 was above 200 µM and the IC50 is above 200 µM.
